Assay results reported in patent publication US9682993B2, “Anticancer compounds” (ST. JUDE CHILDREN'S RESEARCH HOSPITAL, priority 2012, dated 2017).

Legend:
cell lines investigated = assay: Drug combination assays, cell line not stated; assay type: cell-based; conditions: all cell lines investigated
[1] = In vivo plasma pharmacokinetic study in C.B-17 scid mice
Procedure: A sensitive and specific LC-MS/MS assay was developed for quantification of compound 20 in plasma for application in a murine pharmacokinetic study. Calibrators and quality controls (QCs) were prepared using 100% methanol stocks in blank C.B-17 scid mouse plasma with lithium heparin anticoagulant. The calibrators and QCs, 25 μL each, were stored briefly on wet ice and then protein precipitated with 75 μL of ice cold compound 19 internal standard processing solution. The supernatants, 100 μL of each, were mixed with 100 μL of methanol-10 mM ammonium bicarbonate, pH 7.0 (50:50 v/v) and injected from the 96-well plate to the LC-MS/MS system via a CTC HTS PAL autosampler. Chromatography was performed using a Phenomenex Synergi Fusion-RP C18 column ([…], 50 mm×2.0 mm) maintained at 35° C., and a linear gradient mobile phase consisting of water:methanol:acetonitrile ([…], v/v) to methanol: acetonitrile (70:30, v/v) and back. […] Detection was performed with an AB Sciex 5500 QTRAP LC-MS/MS System equipped with a Turbo IonSpray® source using the positive multiple-reaction monitoring (MRM) mode. The transitions monitored included m/x 475->288 for compound 20 and m/x 489->400 for compound 19, which served as an internal standard. The lower limit of quantitation was 1 ng/mL (5× S:N ration, <20% CV); intra-run precision and accuracy was ≦11.2% CV and 96.5-103%, respectively. The calibration curve was linear from 1 to 500 ng/mL (R=0.9968) and QC samples above the limit of quantitation (500 ng/mL) were precisely and accurately diluted into the linear range with blank C.B-17 scid mouse plasma.
A plasma PK study of compound 20 in male C.B-17 scid mice receiving a continuous i.v. infusion of compound 20 (100 mg/kg over 30 min) was performed. Compound 20 was formulated in 15% Captisol®/50 mM Na2HPO4/NaH2PO4 solution at 3 mg/mL and infused with a syringe pump at a rate of 20 μL/min via a jugular vein catheter. Blood samples (1 to 2 samples per mouse, 18 samples from 11 total mice) were collected by either retro-orbital sinus bleeding or terminal cardiac puncture at the following times after the start of infusion: 7.5, 15, 30 (end of infusion), 35, 45, and 60 minutes. The samples were immediately processed to plasma by centrifugation at 2000 g for 5 min; the resultant volume of plasma was then protein precipitated with a 3:1 volume of ice cold IS processing solution. The supernatants were immediately placed on dry ice and then stored at −80° C. until analysis.
The concentration-time data for compound 20 in mice was analyzed using the MLEM population estimation method as implemented in ADAPTS (D'Argenio, D. Z. and Schumitzky, A., Wang ADAPT 5 User's Guide: Pharmacokinetic/Pharmacodynamic Systems Analysis Software; Biomedical Simulations Resource: Los Angeles, Calif., USA, 2009). A linear, one-compartment PL model was fit to the data, and the adequacy of the fit was assessed by the −2 log likelihood value, visual predictive checks, and the residual plots. Inter-individual variability in plasma clearance (CL) and volume of distributions (V) was assumed to be log-normally distributed with the covariance matrix constrained to diagonal elements. The residual, intra-individual error was described using an additive and proportional model, with the additive term fixed to the lower limit of quantitation of the LC-MS/MS assay (LLOQ, 1 ng/mL). Beal's M3 method was used to handle data that was below the LLOQ (Beal, S. L., J. Pharmacokinet. Pharmacodyn. 2001, 28, 481). Other secondary parameters, such as the area under the plasma concentration-time curve to infinity (AUCinf), maximum plasma concentration (Cmax), and the time of Cmax (Tmax) were derived for the population using standard formulae (Pharmacokinetics, Second Edition; Gibaldi, M.; Perrier, D., Eds.; 2nd ed.; CRC Press, 1982).

[2] = male, C.B-17 scid, mouse, plasma, iv, 100 mg/kg, i.v. infusion over 30 min, population

Compound: CNC(=O)O[C@@H](C)/C=C\C(=O)N[C@H]1CC[C@@H](C/C=C(C)/C=C/[C@@H]2C[C@]3(CO3)CC(C)(C)O2)CC1 [compound 20, (S,Z)-5-(((1R,4R)-4-((2E,4E)-5-((3R,5S)-7,7-Methyl-1,6-Dioxaspiro[2.5]Octan-5-Yl)-3-Methylpenta-2,4-Dien-1-Yl)Cyclohexyl)Amino)-5-Oxopent-3-En-2-Yl Methylcarbamate]
- synergy with PI3K/mTOR inhibition (cell lines investigated): synergy is also seen
- mean CL relative to hepatic blood flow ([1]; i.v. infusion over 30 min): 3 fold
- V ([1]; i.v. infusion over 30 min, population mean): 0.877 L/kg
- AUC(0-inf) [1, 2]: 12.5 µM·h
- Cmax [1, 2]: 24.1 µM
- Tmax [1, 2]: 30 min
- half-life ([1]; male, C.B-17 scid, mouse, plasma, iv, 100 mg/kg, i.v. infusion over 30 min, population mean terminal elimination half-life): 2.18 min
- clearance ([1]; male, C.B-17 scid, mouse, plasma, iv, i.v. infusion over 30 min (100 mg/kg, 50 mg/kg elsewhere in the source), population mean): 280 mL/min/kg
- plasma concentration versus target plasma concentration ([1]; target far exceeded and maintained for an adequate time period): > 0.5 µM
